According to patent US20220175798A1, “COMPOSITIONS COMPRISING OXYGENATED CHOLESTEROL SULFATE AND AT LEAST ONE OF POLYALKYLENE GLYCOL, CARBOXYMETHYL CELLULOSE AND POLYOXYLGLYCERIDE” (Durect Corporation, priority 2016, published 2022):

Legend:
[1] = tested on: non-alcoholic steatohepatitis (NASH); assay: Accelerated mouse model of NASH (STZ + HFD), Part I; type: in vivo, C57BL/6J mice; details: vs vehicle
Method: The subjects for the study were 30 C57BL/6J male mice. Mice were given a 200 ug streptozotocin (STZ) at 2 days after birth and fed high fat diet (HFD) starting at four weeks of age until the remainder of the study (9 weeks of age). This intervention early in their lives induces accelerated progression of non-alcoholic steatohepatitis (NASH) and has been highly characterized.
The Vehicle was a solution of 0.5% (w/v) CMC and 0.05% (v/v) Tween-80 in water. Powdered 25HC3 S was constituted into the vehicle solution to result in drug concentrations of 5 and 10 mg/mL. The suspensions were homogenized for approximately 5 minutes being combined, with 10 second breaks every 30-40 seconds and swirled before dosing to maintain homogeneity. The formulated test article was prepared weekly and kept at room temperature.
Mice were divided into treatment groups (N=10/group) and dosed daily by oral gavage with vehicle, 10 mg/kg or 50 mg/kg 25HC3S starting from Week 5 to Week 9 (28 days treatment).

[2] = Single SC injection PK study in Beagle dogs; type: in vivo; details: single SC dose 25 mg/kg
Method: The subjects for the study were 5 male Beagle dogs (4-7 years of age; 8-11 kg). […] All animals were in healthy condition and admitted to the study.
The Vehicle was a solution of 3% (w/v) polyethylene glycol 3350, 0.3% (w/v) polysorbate 80, 0.7% (v/v) sodium chloride, 0.15% (w/v) L-methionine, 10 mM sodium phosphate buffer at pH 7.4 in water. 25HC3 S was mixed into the Vehicle solution to result in a drug concentration of 25 mg/mL. […] The formulated test article was used within 24 hours of constitution.
Each dog received a single subcutaneous injection. The dose level of 25 mg/kg was administered in a dose volume of 1 mL/kg. Whole blood samples were collected via the jugular vein at pre-dose, 0.5, 1, 2, 4, 8, 12, 24, and 32 hours (h) post dose. Blood samples were placed into tubes containing K2EDTA. The blood was gently mixed to assure distribution of the anti-coagulant and the resulting plasma samples underwent analyses to quantify 25HC3S levels. […] Assessments included, but were not limited to, evidence of pain on injection, assessment of activity, posture, respiration, emesis, seizure, hydration status, injection site assessment.

[3] = Syringeability study of 25HC3S suspensions; type: physicochemical
Method: Two lots of 25HC3S sodium salt (Lot #A and Lot #B) were used. Lot #B was delumped through a 20 mesh screen. The drug substance was either used directly or further jet-milled, prior to the preparation of suspensions for the studies. A third lot of 25HC3 S sodium salt (Lot #C) was jet-milled first and then used directly or further passed through a 20 mesh screen prior to the studies. More than 10 vehicles were screened. Four mixing methods were evaluated: manual shaking (Mixing Method 1), manual shaking followed by sonication (Mixing Method 2) and homogenization with a sonic probe (Mixing Method 3) as well as mechanical shaking horizontally in a flat bed shaker (Mixing Method 4). Studies #1 to 13 combined vehicle screening, mixing methods and syringeability evaluation. The effect of drug concentrations on the syringeability was evaluated (Studies #10 and 11). Syringe: 1 mL BD syringe (luer lok tip), reference no: 309628 Needles for syringeability study: listed below Weigh approximately 10 to 100 mg each of 25HC3S into 2 mL vials. Add to each vial, 1 mL of vehicle. A total of 3 mixing methods were used to prepare the suspensions. Mixing Method 1: Each vial was manually shaken for 15 to 45 times. […] The effect of 25HC3S with or without jet milling and the effects of mixing methods as well as drug concentrations on the syringeability were evaluated. […]

[4] = 10 mg/kg daily oral gavage 28 days

For `C[C@H](CCCC(C)(C)O)[C@H]1CC[C@H]2[C@@H]3CC=C4C[C@@H](OS(=O)(=O)[O-])CC[C@]4(C)[C@H]3CC[C@]12C.[Na+]` [Formulation 25HC3S, 5-cholesten-3, 25-diol, 3-sulfate], the “H&E-stained liver sections” value [1, 4] was “No obvious changes”, the “percent area of fibrosis” value [1, 4] was “no significant difference” and the “percent area of fibrosis (Sirius red-positive area)” value ([1]; 50 mg/kg daily oral gavage 28 days, p=0.0061) was “significantly decreased”. For the same molecule, the “NAS (NAFLD activity score)” value ([1]; 50 mg/kg daily oral gavage 28 days, p=0.0088) was “significant reduction”, the clinical signs [2] was “no observable clinical signs” and the “mean time to maximum plasma drug concentration” value ([2]; PEG 3350 suspension 25 mg/mL) was 23.2 h. For the same molecule, the “mean concentration at 32 h” value ([2]; plasma) was 157.6 ng/mL, the syringeability ([3]; 25 mg/mL in Vehicle PEG 3350 (without L-Methionine), flat bed shaker 200 rpm up to 45 minutes (Study #13)) was “good syringeability” and the syringeability ([3]; final suspension formulation: 25 mg/mL in 3% PEG 3350, 0.3% Tween 80, 0.75% NaCl, 10 mM phosphate buffer pH 7.4) was “good syringeability”.
